We go through 51 compounds from patent US9732075B2, “Benzimidazole-proline derivatives” (IDORSIA PHARMACEUTICALS LTD, priority 2012, dated 2017).

Assay [1] has as its target human orexin-1 receptor (Homo sapiens (Human), UniProt O43613). The assay is described as follows: In vitro assay: intracellular calcium measurements (FLIPR), antagonistic activity. Format: cell-based. As to conditions: CHO cells expressing human orexin-1 receptor, orexin-A agonist, geometric mean, read-out: IC50 Ox1. The method in brief: (§1)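 Orexin-A-evoked calcium rise (3 nM final, roughly EC70) was recorded with fluo-4 in recombinant CHO cells, human receptor subtype 1 or 2.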

The target in assay [2] is human orexin-2 receptor (Homo sapiens (Human), UniProt O43614). The description is as above. Format: cell-based. The conditions noted are these: CHO cells expressing human orexin-2 receptor, orexin-A agonist, geometric mean, read-out: IC50 Ox2. The method in brief: as §1
human orexin-2 receptor, sequence (O43614 whole entry): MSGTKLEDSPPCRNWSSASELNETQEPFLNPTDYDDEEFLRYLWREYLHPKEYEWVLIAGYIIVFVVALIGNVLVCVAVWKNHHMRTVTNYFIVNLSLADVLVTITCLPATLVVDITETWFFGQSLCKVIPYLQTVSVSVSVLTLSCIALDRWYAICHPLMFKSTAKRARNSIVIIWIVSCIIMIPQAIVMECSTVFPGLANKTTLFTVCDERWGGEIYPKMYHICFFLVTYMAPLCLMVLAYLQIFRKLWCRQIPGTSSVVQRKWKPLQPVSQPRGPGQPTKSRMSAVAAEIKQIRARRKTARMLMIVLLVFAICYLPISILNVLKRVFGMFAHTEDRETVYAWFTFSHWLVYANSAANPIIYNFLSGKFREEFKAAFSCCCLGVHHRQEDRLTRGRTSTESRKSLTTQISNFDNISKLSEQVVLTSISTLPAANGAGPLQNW

human orexin-1 receptor, sequence (O43613 whole entry): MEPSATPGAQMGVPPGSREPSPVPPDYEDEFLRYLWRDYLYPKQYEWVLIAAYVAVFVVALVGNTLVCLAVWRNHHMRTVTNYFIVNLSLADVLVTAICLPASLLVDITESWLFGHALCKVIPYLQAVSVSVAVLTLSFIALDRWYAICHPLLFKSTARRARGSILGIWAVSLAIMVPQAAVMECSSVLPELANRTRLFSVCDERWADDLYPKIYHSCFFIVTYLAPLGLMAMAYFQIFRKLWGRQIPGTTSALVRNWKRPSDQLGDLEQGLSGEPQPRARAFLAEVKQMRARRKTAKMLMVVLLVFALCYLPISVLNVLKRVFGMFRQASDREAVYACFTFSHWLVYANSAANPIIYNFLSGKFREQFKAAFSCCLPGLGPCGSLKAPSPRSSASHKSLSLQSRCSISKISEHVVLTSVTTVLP

`C=C1C[C@@H](c2nc3cccc(C)c3[nH]2)N(C(=O)c2nc(C)sc2-c2cccc(C)c2)C1` [Ex. 6.101]: the figures for the IC50 in assay [1] and in assay [2] were 10 nM and 0.9 nM, respectively.

As to `C=C1C[C@@H](c2nc3cccc(C)c3[nH]2)N(C(=O)c2cc(Cl)ccc2-n2nccn2)C1` [Ex. 6.102], the IC50 in assay [1] amounted to 364 nM; in assay [2], 32 nM.

Regarding `C=C1C[C@@H](c2nc3cccc(C)c3[nH]2)N(C(=O)c2nc(C)sc2-c2ccc(OC)nc2)C1` [Ex. 6.103], the results for the IC50 in assay [1] and in assay [2] were 184 nM and 6 nM, respectively.

Regarding `C=C1C[C@@H](c2nc3cccc(C)c3[nH]2)N(C(=O)c2nc(C)sc2-c2cccc(Br)c2)C1` [Ex. 6.104], the IC50 was determined as 13 nM in assay [1] and 0.8 nM in assay [2].

With `C=C1C[C@@H](c2nc3cccc(C)c3[nH]2)N(C(=O)c2nc(C)ccc2-n2cccn2)C1` [Ex. 6.105], the IC50 in assay [1] was determined as 1060 nM; in assay [2], 77 nM.

As for `C=C1C[C@@H](c2nc3cccc(C)c3[nH]2)N(C(=O)c2nc(C)sc2-c2ccc(F)cc2)C1` [Ex. 6.106], the IC50 in assay [1] came to 99 nM; in assay [2], 5 nM.

In the case of `C=C1C[C@@H](c2nc3cccc(C)c3[nH]2)N(C(=O)c2nc(C)sc2-c2cc(C)cc(C)c2)C1` [Ex. 6.107], the IC50 amounted to 74 nM in assay [1] and 16 nM in assay [2].

For `C=C1C[C@@H](c2nc3cccc(C)c3[nH]2)N(C(=O)c2cc(C)c(C)cc2-n2nccn2)C1` [Ex. 6.108], the IC50 in assay [1] was determined as 414 nM; in assay [2] it was 7 nM.

With `C=C1C[C@@H](c2nc3cccc(C)c3[nH]2)N(C(=O)c2nc(C)sc2-c2ccc(Cl)cc2)C1` [Ex. 6.109], the concentration for half-maximal inhibition (IC50) in assay [1] was 112 nM; in assay [2] it was 7 nM.

Turning to `C=C1C[C@@H](c2nc3cccc(C)c3[nH]2)N(C(=O)c2nc(C)sc2-c2ccc(F)c(Br)c2)C1` [Ex. 6.110], the IC50 in assay [1] was determined as 15 nM; in assay [2], 1 nM.

As to `C=C1C[C@@H](c2nc3cccc(C)c3[nH]2)N(C(=O)c2cc(OC)ccc2-n2nccn2)C1` [Ex. 6.111], the IC50 in assay [1] came out at 272 nM; in assay [2] it was 14 nM.

On to `C=C1C[C@@H](c2nc3cccc(C)c3[nH]2)N(C(=O)c2nc(C)sc2-c2cccc(C(F)(F)F)c2)C1` [Ex. 6.112], for which the IC50 is 15 nM in assay [1] and 0.7 nM in assay [2].

On to `C=C1C[C@@H](c2nc3cccc(C)c3[nH]2)N(C(=O)c2nc(C)sc2-c2ccc(Cl)c(Cl)c2)C1` [Ex. 6.113], for which the concentration for half-maximal inhibition (IC50) was found to be 5 nM in assay [1] and 1 nM in assay [2].

Turning to `C=C1C[C@@H](c2nc3cccc(C)c3[nH]2)N(C(=O)c2nc(C)sc2-c2cccc(OC)c2)C1` [Ex. 6.114], the half-inhibitory concentration (IC50) was 16 nM in assay [1] and 0.7 nM in assay [2].

On to `C=C1C[C@@H](c2nc3cccc(C)c3[nH]2)N(C(=O)c2nc(C)ccc2-n2nccn2)C1` [Ex. 6.115], for which the half-maximal inhibitory concentration (IC50) in assay [1] came to 333 nM; in assay [2] it was 9 nM.

In the case of `C=C1C[C@@H](c2nc3ccc(Cl)c(C)c3[nH]2)N(C(=O)c2nc(C)sc2-c2ccc(Br)cc2)C1` [Ex. 6.116], the values for the IC50 in assay [1] and in assay [2] were 14 nM and 3 nM, respectively.

As to `C=C1C[C@@H](c2nc3ccc(Cl)c(C)c3[nH]2)N(C(=O)c2nc(C)sc2-c2ccc(OC)nc2)C1` [Ex. 6.117], the concentration for half-maximal inhibition (IC50) was 19 nM in assay [1] and 3 nM in assay [2].

As to `C=C1C[C@@H](c2nc3ccc(Cl)c(C)c3[nH]2)N(C(=O)c2nc(C)sc2-c2ccc(F)cc2)C1` [Ex. 6.118], the IC50 is 21 nM in assay [1] and 4 nM in assay [2].

On to `C=C1C[C@@H](c2nc3ccc(Cl)c(C)c3[nH]2)N(C(=O)c2nc(C)sc2-c2ccc(Cl)cc2)C1` [Ex. 6.119], for which the 50% inhibitory concentration (IC50) in assay [1] worked out at 14 nM; in assay [2] it was 3 nM.

In the case of `C=C1C[C@@H](c2nc3ccc(Cl)c(C)c3[nH]2)N(C(=O)c2nc(C)sc2-c2cccc(C(F)(F)F)c2)C1` [Ex. 6.120], the IC50 was found to be 8 nM in assay [1] and 0.6 nM in assay [2].

Regarding `C=C1C[C@@H](c2nc3ccc(Cl)c(C)c3[nH]2)N(C(=O)c2nc(C)sc2-c2cccc(OC)c2)C1` [Ex. 6.121], the IC50 in assay [1] was 1 nM; in assay [2] it was 0.5 nM.

Turning to `C=C1C[C@@H](c2nc3ccc(Cl)c(C)c3[nH]2)N(C(=O)c2nc(C)sc2-c2cccc(C)c2)C1` [Ex. 6.122], the half-inhibitory concentration (IC50) in assay [1] is 0.9 nM; in assay [2], 0.6 nM.

As to `C=C1C[C@@H](c2nc3ccc(Cl)c(C)c3[nH]2)N(C(=O)c2nc(C)sc2-c2cccc(Br)c2)C1` [Ex. 6.123], the IC50 in assay [1] was found to be 2 nM; in assay [2] it was 0.7 nM.

As to `C=C1C[C@@H](c2nc3ccc(Cl)c(C)c3[nH]2)N(C(=O)c2nc(C)sc2-c2cc(C)cc(C)c2)C1` [Ex. 6.124], the IC50 in assay [1] was determined as 15 nM; in assay [2], 4 nM.

On to `C=C1C[C@@H](c2nc3ccc(Cl)c(C)c3[nH]2)N(C(=O)c2nc(C)sc2-c2ccc(F)c(Br)c2)C1` [Ex. 6.125], for which the 50% inhibitory concentration (IC50) in assay [1] is 2 nM; in assay [2], 0.8 nM.

With `C=C1C[C@@H](c2nc3ccc(Cl)c(C)c3[nH]2)N(C(=O)c2nc(C)sc2-c2ccc(Cl)c(Cl)c2)C1` [Ex. 6.126], the 50% inhibitory concentration (IC50) is 3 nM in assay [1] and 0.8 nM in assay [2].

As for `C=C1C[C@@H](c2nc3ccc(Cl)c(C)c3[nH]2)N(C(=O)c2nc(C)ccc2-n2nccn2)C1` [Ex. 6.127], the IC50 amounted to 17 nM in assay [1] and 4 nM in assay [2].

As to `C=C1C[C@@H](c2nc3ccc(Cl)c(C)c3[nH]2)N(C(=O)c2cc(Cl)ccc2-n2nccn2)C1` [Ex. 6.128], the IC50 in assay [1] was 20 nM; in assay [2], 1 nM.

With `C=C1C[C@@H](c2nc3ccc(Cl)c(C)c3[nH]2)N(C(=O)c2cc(C(F)(F)F)ccc2-n2nccn2)C1` [Ex. 6.129], the IC50 was 215 nM in assay [1] and 39 nM in assay [2].

With `C=C1C[C@@H](c2nc3ccc(Cl)c(C)c3[nH]2)N(C(=O)c2cc(C)c(C)cc2-n2nccn2)C1` [Ex. 6.130], the values for the IC50 in assay [1] and in assay [2] were 11 nM and 0.6 nM, respectively.

For the compound `C=C1C[C@@H](c2nc3ccc(Cl)c(C)c3[nH]2)N(C(=O)c2cc(OC)ccc2-n2nccn2)C1` [Ex. 6.131], the half-maximal inhibitory concentration (IC50) in assay [1] amounted to 9 nM; in assay [2], 0.5 nM.

For the compound `C=C1C[C@@H](c2nc3ccc(Cl)c(C)c3[nH]2)N(C(=O)c2c(-n3nccn3)ccc(C)c2F)C1` [Ex. 6.132], the IC50 stood at 13 nM in assay [1] and 4 nM in assay [2].

As to `C=C1C[C@@H](c2nc3ccc(Cl)c(C)c3[nH]2)N(C(=O)c2c(-n3nccn3)ccc(OC)c2F)C1` [Ex. 6.133], the results for the 50% inhibitory concentration (IC50) in assay [1] and in assay [2] were 3 nM and 2 nM, respectively.

With `C=C1C[C@@H](c2nc3ccc(Cl)c(C)c3[nH]2)N(C(=O)c2cc(C)ccc2-n2cccn2)C1` [Ex. 6.134], the half-inhibitory concentration (IC50) was 75 nM in assay [1] and 10 nM in assay [2].

In the case of `C=C1C[C@@H](c2nc3ccc(Cl)c(C)c3[nH]2)N(C(=O)c2nc(C)ccc2-n2cccn2)C1` [Ex. 6.135], the IC50 turned out to be 83 nM in assay [1] and 5 nM in assay [2].

As for `C=C1C[C@@H](c2nc3ccc(OC)cc3[nH]2)N(C(=O)c2cc(Cl)ccc2-n2nccn2)C1` [Ex. 6.136], the figures for the IC50 in assay [1] and in assay [2] were 765 nM and 4 nM, respectively.

With `C=C1C[C@@H](c2nc3ccc(OC)cc3[nH]2)N(C(=O)c2cc(C)ccc2-n2cccn2)C1` [Ex. 6.137], the IC50 in assay [1] was determined as 4950 nM; in assay [2], 23 nM.

Regarding `C=C1C[C@@H](c2nc3ccc(OC)cc3[nH]2)N(C(=O)c2nc(C)ccc2-n2cccn2)C1` [Ex. 6.138], the IC50 was above 6970 nM in assay [1] and 34 nM in assay [2].

Consider `C=C1C[C@@H](c2nc3ccc(OC)cc3[nH]2)N(C(=O)c2cc(C)c(C)cc2-n2nccn2)C1` [Ex. 6.139], for which the IC50 in assay [1] was determined as 137 nM; in assay [2], 0.6 nM.

`C=C1C[C@@H](c2nc3ccc(OC)cc3[nH]2)N(C(=O)c2cc(OC)ccc2-n2nccn2)C1` [Ex. 6.140]: the values for the IC50 in assay [1] and in assay [2] were 667 nM and 10 nM, respectively.

In the case of `C=C1C[C@@H](c2nc3ccc(OC)cc3[nH]2)N(C(=O)c2c(-n3nccn3)ccc(C)c2F)C1` [Ex. 6.141], the concentration for half-maximal inhibition (IC50) in assay [1] was found to be 883 nM; in assay [2], 9 nM.

Take `C=C1C[C@@H](c2nc3cc(C(F)(F)F)c(Cl)cc3[nH]2)N(C(=O)c2nc(C)sc2-c2ccc(C)c(C)c2)C1` [Ex. 6.142]: the half-inhibitory concentration (IC50) in assay [1] was found to be 17 nM; in assay [2], 22 nM.

`C=C1CN(C(=O)c2nc(C)sc2-c2cccc(C)c2)C(C)(c2nc3cc(OC)ccc3[nH]2)C1` (stereo not drawn) [Ex. 6.143]: the concentration for half-maximal inhibition (IC50) in assay [1] was found to be 13 nM; in assay [2], 32 nM.

On to `C=C1CN(C(=O)c2nc(N(C)C)sc2-c2ccc(C)c(C)c2)C(C)(c2nc3cc(OC)ccc3[nH]2)C1` (stereo not drawn) [Ex. 6.144], for which the IC50 was 15 nM in assay [1] and 56 nM in assay [2].

For the compound `C=C1CN(C(=O)c2nc(C)sc2-c2ccc(OC)cc2)C(C)(c2nc3cc(OC)ccc3[nH]2)C1` (stereo not drawn) [Ex. 6.147], the IC50 is 13 nM in assay [1] and 34 nM in assay [2].

Take `C=C1CN(C(=O)c2nc(C)sc2-c2ccc(C)cc2)C(C)(c2nc3cc(OC)ccc3[nH]2)C1` (stereo not drawn) [Ex. 6.148]: the IC50 was determined as 19 nM in assay [1] and 40 nM in assay [2].

Regarding `C=C1CN(C(=O)c2ccccc2-c2ccc(C)c(C)c2)C(C)(c2nc3cc(OC)ccc3[nH]2)C1` (stereo not drawn) [Ex. 6.149], the figures for the IC50 in assay [1] and in assay [2] were 59 nM and 90 nM, respectively.

`C=C1CN(C(=O)c2ccccc2-c2ccccc2)C(C)(c2nc3cc(OC)ccc3[nH]2)C1` (stereo not drawn) [Ex. 6.150]: the IC50 came to 218 nM in assay [1] and 91 nM in assay [2].

As to `C=C1CN(C(=O)c2nc(N(C)C)sc2-c2cccc(Cl)c2)C(C)(c2nc3cc(OC)ccc3[nH]2)C1` (stereo not drawn) [Ex. 6.152], the IC50 turned out to be 5 nM in assay [1] and 20 nM in assay [2].

As to `C=C1CN(C(=O)c2nc(C)sc2-c2cccc(Cl)c2)C(C)(c2nc3cc(OC)ccc3[nH]2)C1` (stereo not drawn) [Ex. 6.153], the 50% inhibitory concentration (IC50) is 8 nM in assay [1] and 16 nM in assay [2].

As for `C=C1CN(C(=O)c2ccccc2-n2nccn2)C(C)(c2nc3cc(OC)ccc3[nH]2)C1` (stereo not drawn) [Ex. 6.155], the 50% inhibitory concentration (IC50) came out at 649 nM in assay [1] and 105 nM in assay [2].
